Reference: ChEMBL document CHEMBL1152560, “Substituted 2-arylbenzothiazoles as kinase inhibitors: hit-to-lead optimization” (Bioorg Med Chem, 2009)

Key:
[1] = molecular target: Serine/threonine-protein kinase MARK1 (Homo sapiens) (UniProt Q9P0L2); experiment: Residual activity of MARK1 at 1 uM by microplate scintillation counting
[2] = molecular target: Macrophage colony-stimulating factor 1 receptor (Homo sapiens) (UniProt P07333); experiment: Residual activity of CSF1R at 10 uM by microplate scintillation counting
[3] = molecular target: Fibroblast growth factor receptor 3 (Homo sapiens) (UniProt P22607); experiment: Residual activity of FGFR3 at 0.1 uM by microplate scintillation counting
Sequence of Fibroblast growth factor receptor 3 (Homo sapiens) (P22607 23-806 limits assumed): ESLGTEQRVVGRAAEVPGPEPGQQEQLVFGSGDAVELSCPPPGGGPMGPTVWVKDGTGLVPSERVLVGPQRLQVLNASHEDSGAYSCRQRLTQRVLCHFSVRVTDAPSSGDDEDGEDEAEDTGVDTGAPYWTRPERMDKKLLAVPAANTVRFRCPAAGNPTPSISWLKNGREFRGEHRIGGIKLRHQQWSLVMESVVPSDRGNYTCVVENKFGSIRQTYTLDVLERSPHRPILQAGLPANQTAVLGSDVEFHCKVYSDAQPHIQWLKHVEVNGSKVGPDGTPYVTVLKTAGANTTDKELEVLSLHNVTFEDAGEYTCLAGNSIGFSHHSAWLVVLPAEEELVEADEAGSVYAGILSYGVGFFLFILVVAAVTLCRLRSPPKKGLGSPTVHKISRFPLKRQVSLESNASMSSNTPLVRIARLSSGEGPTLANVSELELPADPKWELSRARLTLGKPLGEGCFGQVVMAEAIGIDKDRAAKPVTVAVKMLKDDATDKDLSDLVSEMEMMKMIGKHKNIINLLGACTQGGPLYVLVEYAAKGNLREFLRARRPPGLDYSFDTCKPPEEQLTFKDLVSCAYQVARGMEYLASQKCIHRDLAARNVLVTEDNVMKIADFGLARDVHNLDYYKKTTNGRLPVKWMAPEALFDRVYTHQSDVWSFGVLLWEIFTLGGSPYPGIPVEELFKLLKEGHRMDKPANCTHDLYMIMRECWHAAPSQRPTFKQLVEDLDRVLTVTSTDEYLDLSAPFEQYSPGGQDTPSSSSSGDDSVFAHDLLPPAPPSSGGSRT

[4] = tested on: Epidermal growth factor receptor (Homo sapiens), P00533 [T790M]; experiment: Residual activity of EGFR T790M mutant at 0.1 uM by microplate scintillation counting
[5] = molecular target: Calcium/calmodulin-dependent protein kinase kinase 2 (Homo sapiens) (UniProt Q96RR4); experiment: Residual activity of CAMKK2 at 10 uM by microplate scintillation counting
[6] = molecular target: Rho-associated protein kinase 1 (Homo sapiens) (UniProt Q13464); experiment: Residual activity of ROCK1 at 0.1 uM by microplate scintillation counting
Sequence of Rho-associated protein kinase 1 (Homo sapiens) (Q13464 2-1354 limits assumed): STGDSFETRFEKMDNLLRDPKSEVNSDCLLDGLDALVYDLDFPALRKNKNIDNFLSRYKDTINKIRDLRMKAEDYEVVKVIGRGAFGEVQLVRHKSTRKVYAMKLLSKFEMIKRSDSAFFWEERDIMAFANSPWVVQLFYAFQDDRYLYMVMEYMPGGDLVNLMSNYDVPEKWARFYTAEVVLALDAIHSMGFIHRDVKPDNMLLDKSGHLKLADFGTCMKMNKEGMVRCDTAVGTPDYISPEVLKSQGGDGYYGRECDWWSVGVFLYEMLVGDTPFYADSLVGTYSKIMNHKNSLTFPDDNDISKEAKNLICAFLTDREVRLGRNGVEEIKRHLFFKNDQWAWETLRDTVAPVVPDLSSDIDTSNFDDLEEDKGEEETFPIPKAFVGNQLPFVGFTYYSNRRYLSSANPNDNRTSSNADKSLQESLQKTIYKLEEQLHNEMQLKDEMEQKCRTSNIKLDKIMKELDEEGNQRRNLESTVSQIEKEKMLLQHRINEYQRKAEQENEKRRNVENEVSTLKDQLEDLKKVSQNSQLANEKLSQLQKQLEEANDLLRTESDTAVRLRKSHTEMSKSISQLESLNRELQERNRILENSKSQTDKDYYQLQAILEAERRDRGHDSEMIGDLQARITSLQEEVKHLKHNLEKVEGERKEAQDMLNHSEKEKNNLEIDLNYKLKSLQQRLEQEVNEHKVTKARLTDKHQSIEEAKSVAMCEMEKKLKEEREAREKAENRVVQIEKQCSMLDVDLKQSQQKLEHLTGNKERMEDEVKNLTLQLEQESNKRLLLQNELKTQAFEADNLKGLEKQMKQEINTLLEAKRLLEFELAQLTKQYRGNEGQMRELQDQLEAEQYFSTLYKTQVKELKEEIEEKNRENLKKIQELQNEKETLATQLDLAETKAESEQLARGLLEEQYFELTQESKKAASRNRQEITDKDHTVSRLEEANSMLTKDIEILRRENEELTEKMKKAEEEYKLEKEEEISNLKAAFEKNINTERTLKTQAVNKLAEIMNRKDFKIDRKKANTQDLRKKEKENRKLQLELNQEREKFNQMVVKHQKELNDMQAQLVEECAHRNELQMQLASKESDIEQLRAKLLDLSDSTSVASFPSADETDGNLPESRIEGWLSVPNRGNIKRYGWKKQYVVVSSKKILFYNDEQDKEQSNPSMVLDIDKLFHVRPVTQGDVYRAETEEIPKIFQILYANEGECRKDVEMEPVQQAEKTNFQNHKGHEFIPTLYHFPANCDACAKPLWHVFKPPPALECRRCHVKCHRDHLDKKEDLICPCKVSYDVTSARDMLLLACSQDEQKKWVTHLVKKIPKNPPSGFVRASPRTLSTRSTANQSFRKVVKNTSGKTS

[7] = molecular target: Epidermal growth factor receptor (Homo sapiens, UniProt P00533); experiment: Residual activity of wild type EGF-R at 1 uM by microplate scintillation counting
[8] = molecular target: Serine/threonine-protein kinase MARK2 (Homo sapiens) (UniProt Q7KZI7); experiment: Residual activity of MARK2 at 10 uM by microplate scintillation counting
Sequence of Serine/threonine-protein kinase MARK2 (Homo sapiens) (Q7KZI7 whole entry): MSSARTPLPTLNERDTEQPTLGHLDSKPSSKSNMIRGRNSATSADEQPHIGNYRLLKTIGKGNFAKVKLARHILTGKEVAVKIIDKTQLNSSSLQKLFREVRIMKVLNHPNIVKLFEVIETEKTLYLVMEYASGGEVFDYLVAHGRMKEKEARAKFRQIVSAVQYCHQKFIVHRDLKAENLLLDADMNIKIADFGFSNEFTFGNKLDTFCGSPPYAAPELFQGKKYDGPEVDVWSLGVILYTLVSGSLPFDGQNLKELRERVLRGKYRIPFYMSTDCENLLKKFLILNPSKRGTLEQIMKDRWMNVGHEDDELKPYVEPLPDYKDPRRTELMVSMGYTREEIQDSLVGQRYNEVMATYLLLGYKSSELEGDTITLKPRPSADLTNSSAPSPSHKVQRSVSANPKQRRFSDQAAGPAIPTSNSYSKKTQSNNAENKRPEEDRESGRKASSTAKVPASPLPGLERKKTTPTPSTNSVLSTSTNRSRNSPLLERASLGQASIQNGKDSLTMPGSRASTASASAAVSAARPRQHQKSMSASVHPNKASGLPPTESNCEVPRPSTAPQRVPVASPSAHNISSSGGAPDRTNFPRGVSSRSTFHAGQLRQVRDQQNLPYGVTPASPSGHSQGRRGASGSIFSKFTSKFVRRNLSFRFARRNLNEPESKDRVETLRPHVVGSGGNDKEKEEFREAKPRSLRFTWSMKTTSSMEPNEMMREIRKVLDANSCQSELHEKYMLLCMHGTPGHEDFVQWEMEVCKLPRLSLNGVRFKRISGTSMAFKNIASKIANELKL

[9] = molecular target: T1, Calcium/calmodulin-dependent protein kinase type IV (Homo sapiens) (UniProt Q16566); experiment: Residual activity of CAMK4 at 1 uM by microplate scintillation counting
T1 sequence (whole entry): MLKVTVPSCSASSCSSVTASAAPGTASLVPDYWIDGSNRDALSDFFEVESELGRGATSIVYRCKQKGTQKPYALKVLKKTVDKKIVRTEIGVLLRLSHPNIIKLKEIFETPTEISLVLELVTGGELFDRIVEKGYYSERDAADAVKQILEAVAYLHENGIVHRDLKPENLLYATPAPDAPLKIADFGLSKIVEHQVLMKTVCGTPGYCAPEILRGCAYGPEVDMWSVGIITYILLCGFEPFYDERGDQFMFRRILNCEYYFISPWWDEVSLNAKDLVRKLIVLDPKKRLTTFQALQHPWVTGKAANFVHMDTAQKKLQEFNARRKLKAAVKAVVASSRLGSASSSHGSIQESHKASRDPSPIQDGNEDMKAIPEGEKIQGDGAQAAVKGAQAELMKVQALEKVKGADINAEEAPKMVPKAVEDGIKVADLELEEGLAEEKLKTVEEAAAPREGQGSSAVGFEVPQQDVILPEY

[10] = molecular target: Tyrosine-protein kinase Fyn (Homo sapiens) (UniProt P06241); experiment: Residual activity of FYN at 1 uM by microplate scintillation counting
Sequence of Tyrosine-protein kinase Fyn (Homo sapiens) (P06241 2-537 limits assumed): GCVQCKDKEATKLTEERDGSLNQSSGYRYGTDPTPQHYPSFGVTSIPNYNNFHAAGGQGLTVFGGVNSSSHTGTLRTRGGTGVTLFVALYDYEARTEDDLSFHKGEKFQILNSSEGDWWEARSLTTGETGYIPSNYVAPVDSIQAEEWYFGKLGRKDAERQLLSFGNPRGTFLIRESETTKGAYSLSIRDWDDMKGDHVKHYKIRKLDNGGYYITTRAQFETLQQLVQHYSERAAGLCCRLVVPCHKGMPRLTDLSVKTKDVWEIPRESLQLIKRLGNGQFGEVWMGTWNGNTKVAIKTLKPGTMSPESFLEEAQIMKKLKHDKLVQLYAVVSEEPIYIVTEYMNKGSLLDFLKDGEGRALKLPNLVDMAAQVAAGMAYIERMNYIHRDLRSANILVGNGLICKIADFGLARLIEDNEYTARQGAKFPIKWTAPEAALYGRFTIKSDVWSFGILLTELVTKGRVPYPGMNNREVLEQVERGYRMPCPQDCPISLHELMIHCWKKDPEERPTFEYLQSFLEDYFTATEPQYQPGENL

[11] = molecular target: T2, Serine/threonine-protein kinase TAO2 (Homo sapiens) (UniProt Q9UL54); experiment: Residual activity of TAOK2 at 1 uM by microplate scintillation counting
T2 sequence (whole entry): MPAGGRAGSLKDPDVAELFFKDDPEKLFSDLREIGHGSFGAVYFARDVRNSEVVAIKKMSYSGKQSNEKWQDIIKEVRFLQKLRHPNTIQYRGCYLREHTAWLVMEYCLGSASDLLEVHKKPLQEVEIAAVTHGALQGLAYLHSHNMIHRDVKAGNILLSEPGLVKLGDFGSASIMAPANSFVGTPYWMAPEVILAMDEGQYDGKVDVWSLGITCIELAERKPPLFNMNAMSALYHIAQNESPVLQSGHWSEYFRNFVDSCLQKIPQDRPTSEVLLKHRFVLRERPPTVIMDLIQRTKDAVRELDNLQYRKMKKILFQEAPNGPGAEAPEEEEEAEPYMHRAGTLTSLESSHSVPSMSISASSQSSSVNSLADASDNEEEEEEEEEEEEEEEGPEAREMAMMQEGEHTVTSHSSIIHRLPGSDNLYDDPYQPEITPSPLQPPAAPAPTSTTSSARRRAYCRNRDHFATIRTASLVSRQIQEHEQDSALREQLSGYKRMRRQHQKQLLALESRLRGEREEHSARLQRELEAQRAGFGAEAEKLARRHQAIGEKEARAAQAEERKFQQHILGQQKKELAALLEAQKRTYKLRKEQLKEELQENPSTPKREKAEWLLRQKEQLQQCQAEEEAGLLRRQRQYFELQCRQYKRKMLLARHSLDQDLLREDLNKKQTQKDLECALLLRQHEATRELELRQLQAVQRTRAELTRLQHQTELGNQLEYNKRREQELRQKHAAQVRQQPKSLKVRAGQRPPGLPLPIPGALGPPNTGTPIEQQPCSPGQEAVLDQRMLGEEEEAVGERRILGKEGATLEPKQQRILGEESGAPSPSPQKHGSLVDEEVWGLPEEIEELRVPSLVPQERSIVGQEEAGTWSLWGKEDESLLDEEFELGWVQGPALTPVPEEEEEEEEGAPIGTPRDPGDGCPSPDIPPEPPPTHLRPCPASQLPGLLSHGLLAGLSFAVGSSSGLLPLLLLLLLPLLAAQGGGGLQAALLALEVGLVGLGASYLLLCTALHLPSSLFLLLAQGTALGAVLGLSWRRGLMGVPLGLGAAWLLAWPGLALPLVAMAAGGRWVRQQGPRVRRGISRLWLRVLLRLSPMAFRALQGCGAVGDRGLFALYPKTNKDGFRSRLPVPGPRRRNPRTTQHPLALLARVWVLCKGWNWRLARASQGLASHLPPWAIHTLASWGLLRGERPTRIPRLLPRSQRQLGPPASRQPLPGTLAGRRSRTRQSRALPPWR

[12] = molecular target: Protein kinase C beta type (Homo sapiens) (UniProt P05771); experiment: Residual activity of PKCbeta1 at 10 uM by microplate scintillation counting
[13] = molecular target: Cyclin-dependent kinase 7/ cyclin H (Homo sapiens) (UniProt P51946+P50613); experiment: Residual activity of CDK7/CyclinH/MAT1 at 10 uM by microplate scintillation counting; format: protein-complex assay
[14] = molecular target: Proto-oncogene tyrosine-protein kinase Src (Homo sapiens) (UniProt P12931); experiment: Residual activity of SRC at 0.1 uM by microplate scintillation counting
[15] = molecular target: Fibroblast growth factor receptor 4 (Homo sapiens) (UniProt P22455); experiment: Residual activity of FGFR4 at 0.1 uM by microplate scintillation counting
Sequence of Fibroblast growth factor receptor 4 (Homo sapiens) (P22455 22-802 limits assumed): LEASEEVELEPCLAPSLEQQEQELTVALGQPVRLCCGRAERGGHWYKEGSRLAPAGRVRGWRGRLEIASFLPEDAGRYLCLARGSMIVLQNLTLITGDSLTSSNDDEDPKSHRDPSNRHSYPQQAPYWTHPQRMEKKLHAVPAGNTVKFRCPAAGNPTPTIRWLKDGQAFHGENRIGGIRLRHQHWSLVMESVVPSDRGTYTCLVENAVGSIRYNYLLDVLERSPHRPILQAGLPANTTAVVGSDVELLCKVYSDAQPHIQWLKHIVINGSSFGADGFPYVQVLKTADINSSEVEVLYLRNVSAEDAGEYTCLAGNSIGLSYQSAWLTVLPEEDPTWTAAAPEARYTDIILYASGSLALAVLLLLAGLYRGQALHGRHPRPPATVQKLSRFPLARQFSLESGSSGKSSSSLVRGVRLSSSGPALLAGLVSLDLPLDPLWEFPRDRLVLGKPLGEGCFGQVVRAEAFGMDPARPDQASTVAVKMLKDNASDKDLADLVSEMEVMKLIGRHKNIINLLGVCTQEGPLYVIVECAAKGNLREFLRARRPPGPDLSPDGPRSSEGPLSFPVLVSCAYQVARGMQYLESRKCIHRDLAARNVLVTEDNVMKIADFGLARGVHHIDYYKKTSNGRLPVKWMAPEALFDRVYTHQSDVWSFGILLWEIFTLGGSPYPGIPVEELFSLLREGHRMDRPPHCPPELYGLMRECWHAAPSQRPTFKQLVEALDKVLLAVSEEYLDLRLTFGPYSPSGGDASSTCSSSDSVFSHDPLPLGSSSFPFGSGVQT

Sequence of Serine/threonine-protein kinase MARK1 (Homo sapiens) (Q9P0L2 whole entry, looked up): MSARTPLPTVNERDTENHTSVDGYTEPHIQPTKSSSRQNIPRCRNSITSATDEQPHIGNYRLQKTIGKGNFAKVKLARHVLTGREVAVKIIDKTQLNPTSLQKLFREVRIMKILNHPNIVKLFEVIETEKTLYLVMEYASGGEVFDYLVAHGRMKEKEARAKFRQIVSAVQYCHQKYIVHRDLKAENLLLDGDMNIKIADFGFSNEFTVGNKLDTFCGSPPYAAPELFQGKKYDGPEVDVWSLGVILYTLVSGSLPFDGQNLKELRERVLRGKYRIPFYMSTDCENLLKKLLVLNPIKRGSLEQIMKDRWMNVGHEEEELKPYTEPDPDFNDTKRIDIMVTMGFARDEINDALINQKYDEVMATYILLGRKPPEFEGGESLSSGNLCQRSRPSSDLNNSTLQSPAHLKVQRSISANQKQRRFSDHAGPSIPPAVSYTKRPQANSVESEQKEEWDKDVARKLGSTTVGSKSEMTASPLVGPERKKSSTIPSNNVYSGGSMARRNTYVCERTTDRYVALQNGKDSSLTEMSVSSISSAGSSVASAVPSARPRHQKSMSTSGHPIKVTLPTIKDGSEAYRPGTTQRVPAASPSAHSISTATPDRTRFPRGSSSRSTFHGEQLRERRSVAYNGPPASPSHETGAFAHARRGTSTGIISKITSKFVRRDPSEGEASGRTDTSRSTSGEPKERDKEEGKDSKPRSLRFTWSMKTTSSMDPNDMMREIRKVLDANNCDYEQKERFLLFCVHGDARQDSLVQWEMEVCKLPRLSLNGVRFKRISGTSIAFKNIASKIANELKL

SMILES: COc1cc2c(Oc3ccc(-c4nc5ccccc5s4)cc3)ncnc2cc1OCCCN1CCN(C)CC1
- residual activity [1]: 86%
- residual activity [2]: 127%
- residual activity [3]: 95%
- residual activity [4]: 97%
- residual activity [5]: 109%
- residual activity [6]: 98%
- residual activity [7]: 77%
- residual activity [8]: 67%
- residual activity [9]: 100%
- residual activity [10]: 105%
- residual activity [11]: 97%
- residual activity [12]: 81%
- residual activity [13]: 130%
- residual activity [14]: 100%
- residual activity [15]: 104%

SMILES: COc1cc2c(Oc3ccc(-c4nc5ccccc5s4)cc3)ncnc2cc1OCCCN1CCCC1
- residual activity [1]: 86%
- residual activity [2]: 131%
- residual activity [3]: 104%
- residual activity [4]: 68%
- residual activity [5]: 97%
- residual activity [6]: 96%
- residual activity [7]: 91%
- residual activity [8]: 72%
- residual activity [9]: 97%
- residual activity [10]: 106%
- residual activity [11]: 99%
- residual activity [12]: 73%
- residual activity [13]: 116%
- residual activity [14]: 100%
- residual activity [15]: 100%

SMILES: COc1cc2c(Oc3ccc(-c4nc5ccccc5s4)cc3F)ncnc2cc1OCCCN1CCN(C)CC1
- residual activity [1]: 90%
- residual activity [2]: 55%
- residual activity [3]: 100%
- residual activity [4]: 85%
- residual activity [5]: 112%
- residual activity [6]: 101%
- residual activity [7]: 96%
- residual activity [8]: 60%
- residual activity [9]: 103%
- residual activity [10]: 106%
- residual activity [11]: 101%
- residual activity [12]: 57%
- residual activity [13]: 138%
- residual activity [14]: 100%
- residual activity [15]: 109%
